Reference: patent US12473273B2, “Quinoline compounds and compositions for inhibiting EZH2” (Novartis AG, priority 2020, dated 2025)

Key:
[1] = target: wild type PRC2 (wtPRC2) complex (Homo sapiens, UniProt Q15910); experiment: EZH2 LC-MS Assay; format: biochemical; settings: 40 nM wtPRC2 complex, 30 uM SAM, 1.5 uM H3K27me1 and 3 uM H3K27me3 peptides; SAH production
Procedure: Representative compounds of the invention were serially and separately diluted 3-fold in DMSO to obtain twelve concentrations. Then the test compounds at each concentration (120 nL of each) were transferred by Mosquito into a 384-well Perkin Elmer ProxiPlate 384 plus plates. Solutions (6 μL) of 80 nM wild type PRC2 (wtPRC2) complex and 60 µM SAM in reaction buffer (20 mM Tris, pH 8.0, 0.1% BSA, 0.01% Triton, 0.5 mM DTT) were added to the wells that were then incubated with the test compound for 20 min. A 6 μL solution of 3 µM of the substrate peptide H3K27me1 (histone H3 [21-44]-K27me1-biotin) and 6 μM regulatory peptide H3K27me3 (histone H3 [21-44]-K27me3) in reaction buffer was added to initiate each reaction. The final components in the reaction solution include 40 nM wtPRC2 complex, 30 µM SAM, 1.5 µM H3K27me1 and 3 µM H3K27me3 peptides with varying concentration of the compounds. A positive control consisted of the enzyme at 40 nM, 30 μM SAM, 1.5 µM H3K27me1 and 3 µM H3K27me3 in the absence of the test compound, and a negative control consisted of 30 µM SAM, 1.5 µM H3K27me1 and 3 μM H3K27me3 only. Each reaction was incubated at room temperature for 120 min, then stopped by addition of 3 μL per of quench solution (2.5% TFA with 320 nM d4-SAH). The reaction mixture was centrifuged (Eppendorf centrifuge 5810, Rotor A-4-62) for 2 min at 2000 rpm and read on an API 4000 triple quadrupole mass spec with Turbulon Spray (Applied Biosystem) coupled with Prominence UFLC (Shimadzu). The levels of SAH production were normalized based on the values coming from the positive and negative controls to give percent enzyme activities. The data were fit to a dose response equation using the program Helios to get the […] values of the test compound.

[2] = tested on: H3K27 methylation in G401 cell; experiment: ELISA (H3K27 methylation) assay; format: cell-based; settings: Homo sapiens, G-401, 48 h, cultured 48 h with compound, normalized using H3 signal
Procedure: ELISA (H3K27 methylation) assay
Representative compounds of the invention were serially and separately diluted 3-fold in DO to obtain a total of eight or twelve concentrations. Then the compounds were added to G401 cell cultured in 384-well plate at 1:500 dilution to obtain the highest concentration of 20 μM. The cells were further cultured for 48 h before ELISA procedure.
Histone extraction: Cells, in 384-well plate, were washed with PBS (10 x PBS buffer (80 g NaCl (Sigma, S3014), 2 g KCl (Sigma, 60128), 14.4 g Na2HPO4 (Sigma, S5136), 2.4 g KH2PO4 (Sigma, P9791) to 1 L water, pH to 7.4) and lysed with the addition of lysis buffer (0.4N HCl; 45 μl per well). The plate was gently agitated at 4° C. for 30 min. The cell lysate was neutralized with neutralization buffer (0.5 M sodium phosphate dibasic, pH 12.5. 1 mM DTT; 36 µL per well). The plate was agitated to ensure the lysates were well mixed prior to the ELISA protocol.
ELISA protocol: Cell lysates were transferred to the wells of a 384-well plate and the final volume was adjusted to 50 μL per well with PBS. The plate was sealed, centrifuged at 2,000 rpm for 2 min and incubated at 4° C. for about 16 h. The plate was washed with TBST buffer (1 x TBS (10x TBS: 24.2 g Tris (Sigma, T6066), 80 g NaCl (Sigma, S3014) to 1 L of water and adjust pH to 7.6 with HCl) with 0.1% Tween-20). Blocking buffer (TBST, 5% BSA; 50 µL per well) was added and the plate was incubated for 1 h at rt. The blocking buffer was removed and primary antibody was added (30 μL per well). The following dilutions were performed with blocking buffer: for anti-H3K27me3 antibody (Cell Signaling Technology, #9733), dilution was 1:1000; for anti-H3K27me2 antibody (Cell Signaling Technology, #9288), dilution was 1:100; for anti-H3 antibody (Abcam, Cat #24834), dilution was 1:1000. The primary antibody was incubated in the plate at rt for 1 h. The wells were washed with TBST and incubated with secondary antibody for 1 h at rt. For secondary antibodies, the following dilutions were carried out with blocking buffer: anti-rabbit antibody (Jackson ImmunoResearch, #111-035-003), dilution was 1:2000; and anti-mouse antibody (Cell signaling technology, #7076), dilution was 1:1000.
After 1 h of incubation at rt, the wells were washed with TBST. ECL substrate (Pierce, #34080) was added at 30 μL per well and the plates were centrifuged at 2,000 rpm for 2 min. The signal was read using a PerkinElmer Envision Reader. The H3K27 methylation readouts were normalized using H3 signal and then percentage inhibition was calculated against the samples treated with DO. The data were fit to a dose response curve using the program Helios to get the IC50 values of the test compound.

Chain of wild type PRC2 (wtPRC2) complex (Q15910 whole entry): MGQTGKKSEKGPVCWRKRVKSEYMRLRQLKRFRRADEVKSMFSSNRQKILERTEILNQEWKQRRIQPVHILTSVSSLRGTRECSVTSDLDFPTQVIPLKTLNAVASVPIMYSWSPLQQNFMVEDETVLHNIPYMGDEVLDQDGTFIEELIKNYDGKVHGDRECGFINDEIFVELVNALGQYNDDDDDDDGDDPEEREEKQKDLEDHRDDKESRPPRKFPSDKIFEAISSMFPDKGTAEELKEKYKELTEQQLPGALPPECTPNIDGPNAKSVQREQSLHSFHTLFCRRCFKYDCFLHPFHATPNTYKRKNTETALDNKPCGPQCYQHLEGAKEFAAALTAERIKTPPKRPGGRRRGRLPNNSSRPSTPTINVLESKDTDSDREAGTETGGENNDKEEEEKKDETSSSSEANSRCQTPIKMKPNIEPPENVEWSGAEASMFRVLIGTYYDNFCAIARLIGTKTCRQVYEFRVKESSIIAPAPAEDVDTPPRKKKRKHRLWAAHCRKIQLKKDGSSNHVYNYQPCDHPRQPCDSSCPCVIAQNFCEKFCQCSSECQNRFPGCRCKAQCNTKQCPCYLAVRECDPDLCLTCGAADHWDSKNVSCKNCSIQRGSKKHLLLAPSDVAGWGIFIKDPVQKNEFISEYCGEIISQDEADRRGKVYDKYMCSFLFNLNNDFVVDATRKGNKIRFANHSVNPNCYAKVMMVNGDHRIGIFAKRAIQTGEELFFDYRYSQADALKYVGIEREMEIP
Chain of wild type PRC2 (wtPRC2) complex (O75530 whole entry partner): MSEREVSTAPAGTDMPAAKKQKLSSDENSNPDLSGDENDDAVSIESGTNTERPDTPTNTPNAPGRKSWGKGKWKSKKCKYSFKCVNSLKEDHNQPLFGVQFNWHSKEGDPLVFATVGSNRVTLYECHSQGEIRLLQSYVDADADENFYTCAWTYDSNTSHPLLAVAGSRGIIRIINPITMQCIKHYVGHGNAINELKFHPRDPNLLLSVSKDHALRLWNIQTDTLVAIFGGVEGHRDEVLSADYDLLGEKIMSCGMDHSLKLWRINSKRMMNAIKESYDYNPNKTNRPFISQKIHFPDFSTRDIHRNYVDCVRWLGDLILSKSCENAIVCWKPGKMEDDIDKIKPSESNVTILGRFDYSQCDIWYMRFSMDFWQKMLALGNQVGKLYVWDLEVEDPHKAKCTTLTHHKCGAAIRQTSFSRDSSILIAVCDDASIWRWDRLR
Chain of wild type PRC2 (wtPRC2) complex (Q15022 whole entry partner): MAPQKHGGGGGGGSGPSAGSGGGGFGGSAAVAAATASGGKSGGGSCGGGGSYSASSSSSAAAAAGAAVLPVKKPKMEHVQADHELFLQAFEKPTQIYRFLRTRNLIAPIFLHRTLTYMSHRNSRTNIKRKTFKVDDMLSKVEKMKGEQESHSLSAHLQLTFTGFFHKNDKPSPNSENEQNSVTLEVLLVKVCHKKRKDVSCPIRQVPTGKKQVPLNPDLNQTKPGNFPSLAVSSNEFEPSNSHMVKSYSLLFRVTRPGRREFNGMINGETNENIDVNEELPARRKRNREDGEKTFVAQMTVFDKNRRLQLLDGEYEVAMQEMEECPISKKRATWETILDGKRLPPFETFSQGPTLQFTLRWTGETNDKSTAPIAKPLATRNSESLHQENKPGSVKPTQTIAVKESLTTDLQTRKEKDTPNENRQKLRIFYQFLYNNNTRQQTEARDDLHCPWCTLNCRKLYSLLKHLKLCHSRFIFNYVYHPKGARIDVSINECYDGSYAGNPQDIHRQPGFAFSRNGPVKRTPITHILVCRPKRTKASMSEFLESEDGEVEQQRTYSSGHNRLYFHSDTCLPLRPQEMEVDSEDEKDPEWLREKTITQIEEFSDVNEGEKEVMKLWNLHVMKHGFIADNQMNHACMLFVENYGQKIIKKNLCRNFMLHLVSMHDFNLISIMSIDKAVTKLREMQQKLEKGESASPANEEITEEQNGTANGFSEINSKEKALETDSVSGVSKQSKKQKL

`Cc1ccc2ccc(N[C@H]3CC[C@H](CNc4ccc(CC(=O)NC5COC5)cn4)CC3)nc2c1Cl` [Example 15, 2-(6-((((1r,4r)-4-((8-chloro-7-methylquinolin-2-yl)amino)cyclohexyl)methyl)amino)pyridin-3-yl)-N-(oxetan-3-yl)acetamide] gave an IC50 [1] of under 50 nM and an IC50 [2] of under 10 nM.
